From patent US20240083900A1, “PYRAZOLO[1,5-A]PYRAZINE DERIVATIVES AS BTK INHIBITORS” (BIOGEN MA INC., priority 2020, published 2024)
Where two headings read alike, the source gives them in different places.

Key:
[1] = system: CD69 expression on CD19+ B cells in human whole blood stimulated with anti-human IgD; assay: In Vitro whole blood CD69 Assay; assay type: cell-based
BTK = BTK (Homo sapiens (Human), UniProt Q06187); assay: In Vitro BTK Kinase Assay: Btk-PolyGAT-LS Assay; assay type: biochemical; settings: BTK enzyme 0.25 nM, ATP 10 μM, polyGAT 100 nM, 30 minutes incubation, TRF readout; read-out: IC50
Description: The purpose of the BTK in vitro assay is to determine compound potency against BTK through the measurement of IC50. […] For a typical assay, a 24 μL aliquot of a ATP/peptide master mix (final concentration; ATP 10 μM, polyGAT 100 nM) in kinase buffer (10 mM Tris-HCl pH 7.5, 10 mM MgCl2, 200 μM Na3PO4, 5 mM DTT, 0.01% Triton X-100, and 0.2 mg/ml casein) is added to each well. […] The assay is incubated for 30 minutes before being stopped with 28 μL of a 50 mM EDTA solution. […] The plate is covered and incubated for 45 minutes at room temperature.

[2] = Homo sapiens, B-cell, human heparinized whole blood, anti-human IgD stimulation overnight, percentage of CD19+ B cells expressing CD69, flow cytometry, read-out: IC50

Chain of BTK (Q06187 whole entry): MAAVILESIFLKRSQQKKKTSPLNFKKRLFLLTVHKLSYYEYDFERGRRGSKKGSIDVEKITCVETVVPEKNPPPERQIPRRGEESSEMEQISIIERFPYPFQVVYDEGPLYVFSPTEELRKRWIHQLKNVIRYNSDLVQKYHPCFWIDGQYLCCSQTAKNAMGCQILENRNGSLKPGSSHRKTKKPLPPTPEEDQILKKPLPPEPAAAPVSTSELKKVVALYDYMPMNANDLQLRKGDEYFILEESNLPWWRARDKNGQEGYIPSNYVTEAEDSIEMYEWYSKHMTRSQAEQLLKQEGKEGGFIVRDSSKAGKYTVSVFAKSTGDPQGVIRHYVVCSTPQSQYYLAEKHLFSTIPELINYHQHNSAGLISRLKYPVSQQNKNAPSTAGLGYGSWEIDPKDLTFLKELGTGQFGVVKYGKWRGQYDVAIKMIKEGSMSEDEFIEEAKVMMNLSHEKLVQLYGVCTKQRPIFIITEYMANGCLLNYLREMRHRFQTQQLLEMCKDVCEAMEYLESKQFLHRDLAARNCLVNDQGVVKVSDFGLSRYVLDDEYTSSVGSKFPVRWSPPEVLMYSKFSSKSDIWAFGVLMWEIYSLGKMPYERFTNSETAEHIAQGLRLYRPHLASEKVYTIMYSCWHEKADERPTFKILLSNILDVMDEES

Row | SMILES | IC50 [1, 2] [nM] | IC50 (BTK) [nM] | further results
1 | C=CC(=O)N(C)[C@@H]1CC[C@H](Oc2nc(-c3cnn(C)c3)cn3nccc23)C1 (relative stereo) [Example 143, N-methyl-N-((cis)-3-((6-(1-methyl-1H-pyrazol-4-yl)pyrazolo[1,5-a]pyrazin-4-yl)oxy)cyclopentyl)acrylamide] | < 1000 | – | –
2 | C=CC(=O)N1CCC(Oc2nc(-c3cnn(C)c3)cn3nccc23)CC1 [Example 2, 1-(4-((6-(1-methyl-1H-pyrazol-4-yl)pyrazolo[1,5-a]pyrazin-4-yl)oxy)piperidin-1-yl)prop-2-en-1-one] | > 10000 | – | –
3 | C=CC(=O)N1CCC[C@@H](Oc2nc(-c3cnn(C)c3)cn3nccc23)C1 [Example 4, (R)-1-(3-((6-(1-methyl-1H-pyrazol-4-yl)pyrazolo[1,5-a]pyrazin-4-yl)oxy)piperidin-1-yl)prop-2-en-1-one] | > 10000 | – | –
4 | Cn1cc(-c2cn3nccc3c(OC3CCN(C(=O)/C=C\CCl)CC3)n2)cn1 [Example 8, (Z)-4-chloro-1-(4-((6-(1-methyl-1H-pyrazol-4-yl)pyrazolo[1,5-a]pyrazin-4-yl)oxy)piperidin-1-yl)but-2-en-1-one] | 1000 to 10000 | – | –
5 | C=CC(=O)N1CC[C@@H](Oc2nc(-c3cnn(C)c3)cn3nccc23)C1 [Example 11, (R)-1-(3-((6-(1-methyl-1H-pyrazol-4-yl)pyrazolo[1,5-a]pyrazin-4-yl)oxy)pyrrolidin-1-yl)prop-2-en-1-one] | > 10000 | – | –
6 | C=CC(=O)N1CCC[C@@H](Oc2nc(-c3cnn(C)c3)cn3nccc23)CC1 [Example 29, (R)-1-(4-((6-(1-methyl-1H-pyrazol-4-yl)pyrazolo[1,5-a]pyrazin-4-yl)oxy)azepan-1-yl)prop-2-en-1-one] | < 1000 | – | –
7 | C=CC(=O)N(C)[C@H]1C[C@@](C)(Oc2nc(-c3cnn(C)c3)cn3nccc23)C1 [Example 79, N-methyl-N-((1s,3s)-3-methyl-3-((6-(1-methyl-1H-pyrazol-4-yl)pyrazolo[1,5-a]pyrazin-4-yl)oxy)cyclobutyl)acrylamide] | – | – | IC50 ([1]; Homo sapiens, B-cell): < 1000 nM
8 | C=CC(=O)N(C)C12CCC(Oc3nc(-c4cnn(C)c4)cn4nccc34)(C1)C2 [Example 99, N-methyl-N-(4-((6-(1-methyl-1H-pyrazol-4-yl)pyrazolo[1,5-a]pyrazin-4-yl)oxy)bicyclo[2.1.1]hexan-1-yl)acrylamide] | < 1000 | – | –
9 | C=CC(=O)N(C)[C@H]1CC[C@@H](Oc2nc(-c3cnn(C)c3)cn3nccc23)C1 [Example 145, N-methyl-N-((1S,3R)-3-((6-(1-methyl-1H-pyrazol-4-yl)pyrazolo[1,5-a]pyrazin-4-yl)oxy)cyclopentyl)acrylamide] | < 1000 | – | –
10 | C=CC(=O)N(C)[C@]1(C)C[C@H](Oc2nc(-c3cnn(C)c3)cn3nccc23)C1 [Example 158, Cis N-methyl-N-(1-methyl-3-((6-(1-methyl-1H-pyrazol-4-yl)pyrazolo[1,5-a]pyrazin-4-yl)oxy)cyclobutyl)acrylamide] | – | – | IC50 ([1]; human heparinized whole blood, anti-human IgD stimulation overnight, percentage of CD19+ B cells expressing CD69, flow cytometry, read-out: IC50): < 1000 nM
11 | C=CC(=O)N1C[C@H]2C[C@@H](Oc3nc(-c4cnn(C)c4)cn4nccc34)C[C@@H]1C2 [Example 167, 1-((1R,3R,5S)-3-((6-(1-methyl-1H-pyrazol-4-yl)pyrazolo[1,5-a]pyrazin-4-yl)oxy)-6-azabicyclo[3.2.1]octan-6-yl)prop-2-en-1-one] | < 1000 | – | –
12 | C=CC(=O)N1C[C@@H]2C[C@H](Oc3nc(-c4cnn(C)c4)cn4nccc34)C[C@H]1C2 [Example 168, 1-((1S,3S,5R)-3-((6-(1-methyl-1H-pyrazol-4-yl)pyrazolo[1,5-a]pyrazin-4-yl)oxy)-6-azabicyclo[3.2.1]octan-6-yl)prop-2-en-1-one] | 1000 to 10000 | – | –
13 | C=CC(=O)N(C)[C@H]1CCC[C@@H](Oc2nc(-c3cnn(C)c3)cn3nccc23)C1 [Example 175, N-methyl-N-((1S,3R)-3-((6-(1-methyl-1H-pyrazol-4-yl)pyrazolo[1,5-a]pyrazin-4-yl)oxy)cyclohexyl)acrylamide] | < 1000 | – | –
14 | C=CC(=O)N(C)[C@@H]1CCC[C@H](Oc2nc(-c3cnn(C)c3)cn3nccc23)C1 [Example 176, N-methyl-N—((1R,3S)-3-((6-(1-methyl-1H-pyrazol-4-yl)pyrazolo[1,5-a]pyrazin-4-yl)oxy)cyclohexyl)acrylamide] | 1000 to 10000 | – | –
15 | CN(C(=O)CCl)[C@H]1CCC[C@@H](Oc2nc(-c3cnn(C)c3)cn3nccc23)C1 [Example 181, 2-chloro-N-methyl-N-((1S,3R)-3-((6-(1-methyl-1H-pyrazol-4-yl)pyrazolo[1,5-a]pyrazin-4-yl)oxy)cyclohexyl)acetamide] | – | < 1 | –
16 | C=CC(=O)N(C)CCCOc1nc(-c2cnn(C)c2)cn2nccc12 [Example 182, N-methyl-N-(3-((6-(1-methyl-1H-pyrazol-4-yl)pyrazolo[1,5-a]pyrazin-4-yl)oxy)propyl)acrylamide] | – | 10 to 1000 | –
17 | C=CC(=O)N(C)CC(C)CCOc1nc(-c2cnn(C)c2)cn2nccc12 (stereo not drawn) [Example 184, N-methyl-N-(2-methyl-4-((6-(1-methyl-1H-pyrazol-4-yl)pyrazolo[1,5-a]pyrazin-4-yl)oxy)butyl)acrylamide] | – | 10 to 1000 | –
18 | C=CC(=O)N(C)[C@H]1C[C@H](Oc2nc(-c3cnn(C)c3)cn3nccc23)C1 [Example 185, N-methyl-N-((trans)-3-((6-(1-methyl-1H-pyrazol-4-yl)pyrazolo[1,5-a]pyrazin-4-yl)oxy)cyclobutyl)acrylamide] | 1000 to 10000 | – | –
19 | C=CC(=O)N1CC[C@@H]2[C@H]1C[C@]2(C)Oc1nc(-c2cnn(C)c2)cn2nccc12 [Example 190, 1-((1R,5R,6S)-6-methyl-6-((6-(1-methyl-1H-pyrazol-4-yl)pyrazolo[1,5-a]pyrazin-4-yl)oxy)-2-azabicyclo[3.2.0]heptan-2-yl)prop-2-en-1-one] | < 1000 | – | –
20 | C=CC(=O)N1CC[C@H]2[C@@H]1C[C@@]2(C)Oc1nc(-c2cnn(C)c2)cn2nccc12 [Example 191, 1-((1S,5S,6R)-6-methyl-6-((6-(1-methyl-1H-pyrazol-4-yl)pyrazolo[1,5-a]pyrazin-4-yl)oxy)-2-azabicyclo[3.2.0]heptan-2-yl)prop-2-en-1-one] | 1000 to 10000 | – | –
21 | Cc1ncc(-c2cn3nccc3c(O[C@@]3(C)C[C@@H]4[C@H]3CCN4C(=O)C3=CCC3)n2)s1 [Example 196, Cyclobut-1-en-1-yl((1R,5R,6S)-6-methyl-6-((6-(2-methylthiazol-5-yl)pyrazolo[1,5-a]pyrazin-4-yl)oxy)-2-azabicyclo[3.2.0]heptan-2-yl)methanone] | – | 10 to 1000 | –
22 | C=CC(=O)N1C[C@@H]2C[C@H](Oc3nc(-c4cnn(C)c4)cn4ncc(C)c34)[C@@H]2C1 [Example 198, 1-((1R,5S,6S)-6-((3-methyl-6-(1-methyl-1H-pyrazol-4-yl)pyrazolo[1,5-a]pyrazin-4-yl)oxy)-3-azabicyclo[3.2.0]heptan-3-yl)prop-2-en-1-one] | – | 10 to 1000 | –
23 | C=CC(=O)N1C[C@@H]2C[C@@](C)(Oc3nc(-c4cnn(C)c4)cn4nccc34)[C@@H]2C1 [Example 199, 1-((1R,5S,6R)-6-methyl-6-((6-(1-methyl-1H-pyrazol-4-yl)pyrazolo[1,5-a]pyrazin-4-yl)oxy)-3-azabicyclo[3.2.0]heptan-3-yl)prop-2-en-1-one] | 1000 to 10000 | – | –
24 | Cn1cc(-c2cc3nccn3c(O[C@]3(C)C[C@H](N(C)C(=O)/C=C/C(F)(F)F)C3)n2)cn1 [Example 201, (E)-4,4,4-trifluoro-N-methyl-N-((1s,3s)-3-methyl-3-((7-(1-methyl-1H-pyrazol-4-yl)imidazo[1,2-c]pyrimidin-5-yl)oxy)cyclobutyl)but-2-enamide] | – | 1 to 10 | –
25 | C=CC(=O)N1CCC2(CC1)CC(Oc1nc(-c3cnn(C)c3)cn3nccc13)C2 [Example 208, 1-(2-((6-(1-methyl-1H-pyrazol-4-yl)pyrazolo[1,5-a]pyrazin-4-yl)oxy)-7-azaspiro[3.5]nonan-7-yl)prop-2-en-1-one] | – | 10 to 1000 | –
26 | C=CC(=O)N(C)CC1(COc2nc(-c3cnn(C)c3)cn3nccc23)CC1 [Example 216, N-methyl-N-((1-(((6-(1-methyl-1H-pyrazol-4-yl)pyrazolo[1,5-a]pyrazin-4-yl)oxy)methyl)cyclopropyl)methyl)acrylamide] | – | 10 to 1000 | –
27 | CC#CC(=O)N(C)[C@H]1C[C@@H](Oc2nc(-c3cnn(C)c3)c(F)n3nccc23)C1 [Example 222, N-((cis)-3-((7-fluoro-6-(1-methyl-1H-pyrazol-4-yl)pyrazolo[1,5-a]pyrazin-4-yl)oxy)cyclobutyl)-N-methylbut-2-ynamide] | – | 10 to 1000 | –
28 | CC#CC(=O)N(CCF)[C@H]1C[C@H](Oc2nc(-c3cnn(C)c3)cn3nccc23)C1 [Example 223, N-(2-fluoroethyl)-N-((trans)-3-((6-(1-methyl-1H-pyrazol-4-yl)pyrazolo[1,5-a]pyrazin-4-yl)oxy)cyclobutyl)but-2-ynamide] | – | 10 to 1000 | –
29 | Cn1cc(-c2cn3nccc3c(O[C@H]3C[C@H](N(C)C(=O)/C=C/CCl)C3)n2)cn1 [Example 227, (E)-4-chloro-N-methyl-N-((trans)-3-((6-(1-methyl-1H-pyrazol-4-yl)pyrazolo[1,5-a]pyrazin-4-yl)oxy)cyclobutyl)but-2-enamide] | – | < 1 | –
30 | Cn1cc(-c2cn3nccc3c(O[C@]3(C)C[C@H](N(C)C(=O)C4=CCC4)C3)n2)cn1 [Example 230, N-methyl-N-((1s,3s)-3-methyl-3-((6-(1-methyl-1H-pyrazol-4-yl)pyrazolo[1,5-a]pyrazin-4-yl)oxy)cyclobutyl)cyclobut-1-ene-1-carboxamide] | – | 1 to 10 | –
